From ChEMBL document CHEMBL4613255, “Tridiscorhabdin and Didiscorhabdin, the First Discorhabdin Oligomers Linked with a Direct C-N Bridge from the Sponge Latrunculia biformis Collected from the Deep Sea in Antarctica” (J Nat Prod, 2020)

Legend:
HCT-116 = assay: Cytotoxicity against human HCT116 cells assessed as reduction in cell viability after 24 hrs by fluorescence based assay; assay type: functional; details: HCT-116, 24 h
HaCaT = assay: Cytotoxicity against human HaCaT cells assessed as reduction in cell viability after 24 hrs by fluorescence based assay

Work on `O=C1C2=C3C4=[N+](CCc5c[nH]c1c54)[C@@H]1C(=O)C=C4S[C@H](C[C@]43[C@H]1O)N2` yielded an IC50 (HCT-116) of 940 nM.

`O=C1C=C(S[C@@H]2[C@H]3C(=O)C=C4S[C@H]5C[C@@]42C2=C(N5)C(=O)c4[nH]cc5c4C2=[N+]3CC5)[C@@]2(C=CNC3=C2c2nccc4cn([C@H]5[C@H]6C(=O)C=C7S[C@H]8C[C@]75C5=C(N8)C(=O)c7[nH]cc8c7C5=[N+]6CC8)c(c24)C3=O)C=C1Br` was tested, and the IC50 (HaCaT) was 920 nM and the IC50 (HCT-116) was 310 nM.
